{"source": "patent US9617262B2", "about": "“Antibacterial cyclopental[C]pyrrole substituted 3,4-dihydro-1H-[1,8]naphthyridinones” (Janssen Sciences Ireland UC, priority 2011, dated 2017)", "key": {"[1]": {"assay": "In vivo pharmacokinetic and oral bioavailability", "details": "male Swiss mice", "protocol": "The in vivo pharmacokinetics and oral bioavailability of the compound of the examples was/is investigated in male Swiss mice (fed) following single intravenous (i.v.) bolus and oral (p.o.) administration. For the i.v. and p.o. solution formulations, the compound was/is dissolved in a 20% HP-β-CD solution. The pH of the formulations was/is around pH 4. All i.v. formulations were isotonic."}, "[2]": {"test_system": "Staphylococcus aureus ATCC 29213", "assay": "Antibacterial susceptibility testing: IC90 determination (STA)", "type": "cell-based", "details": "STA ATCC 29213, 90% inhibitory concentration for bacterial growth", "protocol": "The following bacteria were used: Staphylococcus aureus ATCC 29213, methicillin-resistant Staphylococcus aureus (MRSA) ATCC 700788 and Escherichia coli ATCC 35218. The bacteria used in this study were grown overnight in flasks containing 100 ml Mueller-Hinton broth (Difco cat. nr. 0757-17) in sterile de-ionized water, with shaking, at 37° C. Stocks were store at −70° C. until use.\nBacteria were incubated on a tryptic soy agar plate containing 5% sheep blood (Becton Dickinson cat. nr. 254053) for 18-24 hours at 35° C. in aerobic conditions (first passage). For the second passage, fresh Mueller-Hinton broth is inoculated with 5-10 colonies and grown overnight at 35° C. until turbidity (reaching log-phase) in aerobic conditions is reached. The bacterial suspension is then adjusted to 0.5 McFarland density and further diluted 1:100 in Mueller Hinton broth medium. This is used as inoculum.\nMIC assays were performed by the broth microdilution method in a 96-well format (flat-bottom microtitre plates) with a final volume of 0.1 ml Mueller Hinton broth containing two-fold serial dilutions of compounds and inoculated with 5×10^5 CFU/ml of bacteria (standard inoculum size according to CLSI guidelines). Inhibitors are typically varied over the range of 63 to 0.49 μM. The final DMSO concentration in the assay was 1.25% (maximum tolerable DMSO concentration=6%). In the assays where the effect of human serum on the activity of the compounds against S. aureus was tested, human serum was added at a final concentration of 10%. The plates were incubated at 35° C. for 16-20 hours. At the end of incubation the bacterial growth was quantified fluorometrically. For this, resazurin was added to all wells and the plates were re-incubated. The incubation time is dependent on the type of bacteria. A change in color from blue to pink indicated the growth of bacteria. The fluorescence was read in computer-controlled fluorometer (Fluoroskan Ascent FL, Labsystems) at an excitation wavelength 540 nm and an emission wavelength of 590 nm. The % growth inhibition achieved by the compounds was calculated according to standard methods. The IC90 (expressed in μg/ml) was defined as the 90% inhibitory concentration for bacterial growth. A panel of reference compounds were simultaneously tested for QC approval."}, "[3]": {"test_system": "Escherichia coli Tol C mutant", "assay": "Antimicrobial spectrum, broth microdilution MIC", "type": "cell-based", "details": "E. coli tolC mutant", "protocol": "(§1) Minimum Inhibitory Concentrations (MICs) were determined in accordance with the Clinical and Laboratory Standards Institute (CLSI) methodology against aerobic bacteria (CLSI M07-A8) (see Clinical and Laboratory Standards Institute. 2009. Methods for dilution antimicrobial susceptibility tests for bacteria that grow aerobically. CLSI document M07-A8, Vol. 29, No. 2.) by the broth microdilution method with cation-adjusted Mueller-Hinton broth (CA-MHB) medium for the majority of organisms, except for Haemophilus influenza, where Haemophilis test medium (HTM) broth was used. Descriptions of the individual organisms can be found in the table. Where possible, ATCC standard strains were tested.\n(§2) The inoculum density for the susceptibility testing was standardized to give a final inoculum of approximately 5×10^5 CFU/mL.\n(§3) Stock solutions of the compounds were prepared in DMSO at concentrations of 1 mg/mL. Linezolid was prepared in DMSO at a concentration of 2 mg/mL. Stock solutions of all compounds were diluted into CA-MHB to give a range of two-fold dilutions, depending upon the sensitivity of the organism being tested."}, "[4]": {"test_system": "Escherichia coli ATCC 25922; reference strain", "assay": "Antimicrobial spectrum, broth microdilution MIC", "type": "cell-based", "details": "E. coli ATCC 25922", "protocol": "as §1, §2, §3"}, "[5]": {"test_system": "Haemophilus influenzae ATCC 49247; reference strain", "assay": "Antimicrobial spectrum, broth microdilution MIC", "type": "cell-based", "details": "H. influenza ATCC 49247", "protocol": "as §1, §2, §3"}, "[6]": {"test_system": "Staphylococcus aureus ATCC 29213; reference strain MSSA", "assay": "Antimicrobial spectrum, broth microdilution MIC", "type": "cell-based", "details": "S. aureus ATCC 29213", "protocol": "as §1, §2, §3"}, "[7]": {"test_system": "Staphylococcus aureus ATCC 43300; reference strain MRSA", "assay": "Antimicrobial spectrum, broth microdilution MIC", "type": "cell-based", "details": "S. aureus ATCC 43300", "protocol": "as §1, §2, §3"}, "[8]": {"test_system": "Staphylococcus aureus NRS120; LZD-R", "assay": "Antimicrobial spectrum, broth microdilution MIC", "type": "cell-based", "details": "S. aureus NRS120", "protocol": "as §1, §2, §3"}, "[9]": {"test_system": "Staphylococcus aureus NRS121; LZD-R", "assay": "Antimicrobial spectrum, broth microdilution MIC", "type": "cell-based", "details": "S. aureus NRS121", "protocol": "as §1, §2, §3"}, "[10]": {"test_system": "Staphylococcus aureus NRS119; LZD-R", "assay": "Antimicrobial spectrum, broth microdilution MIC", "type": "cell-based", "details": "S. aureus NRS119", "protocol": "as §1, §2, §3"}, "[11]": {"test_system": "Moraxella catarrhalis ATCC 8176; b-lactamase negative", "assay": "Antimicrobial spectrum, broth microdilution MIC", "type": "cell-based", "details": "M. catarrhalis ATCC 8176", "protocol": "as §1, §2, §3"}}}
{"smiles": "O=C1CCc2cc(/C=C/C(=O)N3C[C@@H]4CC(c5ccccc5)=C[C@@H]4C3)cnc2N1", "note": "(single isomer, unassigned) [compound 14]", "values": [{"measurement": "AUC0-inf", "setting": "[1]; i.v. 2.5 mg/kg", "result": 7464, "unit": "ng·h/mL"}, {"measurement": "Half life (t1/2)", "setting": "[1]; i.v. 2.5 mg/kg", "result": 2.7, "unit": "h"}, {"measurement": "Plasma clearance Cl", "setting": "[1]; i.v. 2.5 mg/kg", "result": 5.5, "unit": "mL/min/kg"}, {"measurement": "Vdz", "setting": "[1]; i.v. 2.5 mg/kg", "result": 1.3, "unit": "L/kg"}, {"measurement": "C0", "setting": "[1]; i.v. 2.5 mg/kg, 20% HP-β-CD solution", "result": 2929, "unit": "ng/mL"}, {"measurement": "Oral bioavailability", "setting": "[1]; p.o. 10 mg/kg vs i.v. 2.5 mg/kg", "result": 72, "unit": "%"}, {"measurement": "AUC0-inf", "setting": "[1]; p.o. 10 mg/kg", "result": 21394, "unit": "ng·h/mL"}, {"measurement": "Cmax", "setting": "[1]; p.o. 10 mg/kg", "result": 2950, "unit": "ng/mL"}, {"measurement": "Half life (t1/2)", "setting": "[1]; p.o. 10 mg/kg", "result": 3.2, "unit": "h"}, {"measurement": "Tmax", "setting": "[1]; p.o. 10 mg/kg", "result": 2.0, "unit": "h"}, {"measurement": "STA (361.159) IC90", "setting": "[2]", "result": 0.19, "unit": "µg/mL"}, {"measurement": "MIC90", "setting": "[3]", "result": 0.25, "unit": "µg/mL"}, {"measurement": "MIC90", "setting": "[4]", "result": 4, "unit": "µg/mL"}, {"measurement": "MIC90", "setting": "[5]", "result": 0.25, "unit": "µg/mL"}, {"measurement": "MIC90", "setting": "[6]", "result": 0.03, "unit": "µg/mL"}, {"measurement": "MIC90", "setting": "[7]", "result": 0.03, "unit": "µg/mL"}, {"measurement": "MIC90", "setting": "[8]", "result": 0.03, "unit": "µg/mL"}, {"measurement": "MIC90", "setting": "[9]", "result": 0.03, "unit": "µg/mL"}, {"measurement": "MIC90", "setting": "[10]", "result": 0.03, "unit": "µg/mL"}, {"measurement": "MIC90", "setting": "[11]", "result": 0.015, "unit": "µg/mL"}]}
